Results from PMC11676875, “In Vitro Screening of an In-House Library of Structurally Distinct Chemotypes Towards the Identification of Novel SARS-CoV-2 Inhibitors” (Pharmaceuticals, 2024).
Read-outs that look alike come from different tables or passages of the source.

How the values were obtained:
SARS-CoV-2 [1] = test: microbe, parasite or virus in culture; format: cell-based, SARS-CoV-2 B1.1 lineage; settings: for IC50: Severe acute respiratory syndrome coronavirus 2, Vero C1008, 72 h, read-out: SARS-CoV-2 IC50
in vitro = settings: monkey
[2] = set-up: method as in PMID 34116325; settings: cited from earlier work
[3] = set-up: method as in PMID 29194347, PMID 37238706; settings: cited from earlier work
[4] = mice, i.p.; cited from earlier work
[5] = microsomes and hepatocytes of different species; cited from earlier work
[6] = non-human primates; cited from earlier work
Dengue virus type 2 = test: Activity against Dengue virus type 2 (unpublished results); format: cell-based
[7] = biological target: α4β2 subtype of the nicotinic receptor; set-up: method as in PMID 12088062; settings: cited from earlier work
SARS-CoV-2 [8] = settings: reference compound; cited from earlier work
SARS-CoV-2 [9] = system: SARS-CoV-2; set-up: method as in PMID 37367224; settings: lung epithelium cell line; cited from earlier work
SARS-CoV-2 [10] = settings: read-out: IC50 against SARS-CoV-2; cited from earlier work

Compound	IC50 (SARS-CoV-2 [1])	CC50 (in vitro)	SAR analysis summary of anti-SARS-CoV-2 activity (SARS-CoV-2 [1])	other results
CCN(CC)CCCC(C)Nc1ccnc2cc(Cl)ccc12 (stereo not shown) [CQ, chloroquine, reference compound]	8.5 µM	96.3 µM		
Clc1ccc(Nc2cc3nc4ccccc4n(-c4ccc(Cl)cc4)c-3cc2=NCC2CCCN3CCCCC23)cc1 (stereo not shown) [Compound 1]	> 2 µM	3.14 µM	Inactive/ Cytotoxic	
Cc1ccc(Nc2cc3nc4ccccc4n(-c4ccc(C)cc4)c-3cc2=NCC2CCCN3CCCCC23)cc1 (stereo not shown) [Compound 2]	1.5 µM	2.81 µM		
c1ccc(Nc2cc3nc4ccccc4n(-c4ccccc4)c-3cc2=NCCCCC23CCCCN2CCCC3)cc1 [Compound 3]	4 µM	10.5 µM		
Fc1ccc(Nc2cc3nc4ccccc4n(-c4ccc(F)cc4)c-3cc2=NCCCCC23CCCCN2CCCC3)cc1 [Compound 4]	> 1 µM	2.19 µM	Inactive/ Cytotoxic	
c1ccc(Nc2cc3nc4ccccc4n(-c4ccccc4)c-3cc2=NCC23CCCN2CCC3)cc1 [Compound 5]	> 2 µM	3.2 µM	Inactive/ Cytotoxic	
Clc1ccc(Nc2cc3nc4ccccc4n(-c4ccc(Cl)cc4)c-3cc2=NCC23CCCN2CCC3)cc1 [Compound 6]	> 3 µM	5.58 µM	Inactive/ Cytotoxic	
CN1CCN(CCN=c2cc3n(-c4ccc(Cl)cc4)c4ccccc4nc-3cc2Nc2cccnc2)CC1 [Compound 7]		2.62 µM	Inactive/ Cytotoxic	inhibition at 1 µM (SARS-CoV-2 [1]; Severe acute respiratory syndrome coronavirus 2, Vero C1008, read-out: % inhibition of viral replication): 20.5%; water solubility [2]: highly water soluble
Clc1ccc(-n2c3cc(=NCCN4CCOCC4)c(Nc4cccnc4)cc-3nc3ccccc32)cc1 [Compound 8]		1.74 µM	Inactive/ Cytotoxic	
Clc1ccc(-n2c3cc(=NCCCN4CCCCC4)c(Nc4cccnc4)cc-3nc3ccccc32)cc1 [Compound 9]		1.88 µM	Inactive/ Cytotoxic	
Clc1ccc2c(NC[C@@H]3CCCN4CCCC[C@H]34)ccnc2c1 [Compound 10]	2.2 µM	44 µM		oral bioavailability [3]: excellent; volume of distribution [3]: high; maximum tolerated dose, MTD [4]: greater than 100 mg/Kg; metabolic stability [5]: good
Clc1ccc2c(NCC34CCCN3CCC4)ccnc2c1 [Compound 11]	3.7 µM	74.5 µM		oral bioavailability [3]: excellent; volume of distribution [3]: high; maximum tolerated dose, MTD [4]: greater than 100 mg/Kg; oral MTD [6]: 50 mg/kg/day; metabolic stability [5]: good
CCN(CC)CCCn1c(Cc2ccccc2)nc2cc(/C(C)=N\NC(N)=O)ccc21 [Compound 12]	> 100 µM	> 100 µM	Inactive/ Cytotoxic	
CCN(CC)CCCn1c(Cc2ccccc2)nc2cc(C(C)=NNC(N)=S)ccc21 [Compound 13]	20 µM	96.1 µM		
CC(=NNC(N)=S)c1ccc2c(c1)nc(Cc1ccccc1)n2C[C@@H]1CCCN2CCCC[C@H]12 [Compound 14, 2-(1-{2-Benzyl-1-[((1S,9aR)-octahydro-2H-quinolizin-1-yl)methyl]-1H-benzo[d]imidazol-5-yl}-ethylidene)hydrazine-1-carbothioamide]	12.2 µM	70 µM		
CCN(CC)CCCn1c(Cn2nnc3ccccc32)nc2cc(C(C)=NNC(N)=S)ccc21 [Compound 15, 2-(1-{2-[(1H-Benzo[d][1,2, 3]triazol-1-yl)methyl]-1-[3-(N,N-diethylamino)propyl]-1H-benzo-[d]imidazol-5-yl}ethylidene)hydrazine-1-carbothioamide]	14.9 µM	67.1 µM		
CCN(CC)CCCn1c(Cn2nnc3ccccc32)nc2cc(Cl)ccc21 [Compound 18]	28.1 µM	107 µM		
Cc1ccc2c(c1)nc(Cn1nnc3ccccc31)n2CC[C@@H]1CCCN2CCCC[C@H]12 [Compound 19]	15.3 µM	76.3 µM		
Clc1ccc2c(c1)nc(Cn1nnc3ccccc31)n2CC[C@@H]1CCCN2CCCC[C@H]12 [Compound 20]	6.95 µM	19.4 µM		
Oc1ccc(-n2nc3ccc(C(F)(F)F)cc3n2)cc1 [Compound 21]	> 20 µM	25.4 µM		activity against SARS-CoV-2 (SARS-CoV-2 [1]): no activity; IC50 (Dengue virus type 2): 17 µM
CN1CCCC1=CN=Nc1cccc(Br)c1 [Compound 22]	> 20 µM	26.8 µM		activity against SARS-CoV-2 (SARS-CoV-2 [1]): no activity; IC50 (Dengue virus type 2): 24 µM
O=c1cccc2n1CC1CC2CN(C(=S)NC2CCCCC2)C1 (stereo not shown) [Compound 23]	95.6 µM	> 100 µM		Ki [7]: 2.3 µM
CC(=O)Oc1ccccc1C(=O)Oc1ccc(-c2cc(=S)ss2)cc1 [Compound 24]	> 10 µM	32.9 µM		activity against SARS-CoV-2 (SARS-CoV-2 [1]): no activity
CC(=O)/C=C(/C)Nc1cccc2c3c([nH]c12)CCCC3 [Compound 25]	90.1 µM	> 100 µM		
CC(C)/N=c1\cc2n(-c3ccc(Cl)cc3)c3ccccc3nc-2cc1Nc1ccc(Cl)cc1 [clofazimine]				IC50 (SARS-CoV-2 [8]): 0.31 µM; reduction in viral RNA load (SARS-CoV-2 [9]): 25%
CCN(CCO)CCCC(C)Nc1ccnc2cc(Cl)ccc12 (stereo not shown) [hydroxychloroquine]				IC50 (SARS-CoV-2 [10]): 0.72 µM
